Source: ChEMBL document CHEMBL6092125, “Synthesis and biological evaluation of novel aminoquinolines with an n-octyl linker: Impact of halogen substituents on C(7) or a terminal amino group on anticholinesterase and BACE1 activity” (Bioorg Med Chem Lett, 2024)
Active and inactive are the calls of the source. The calls are words filed in the database; no cut-off is given here.

Columns and labels:
Cholinesterase [1] = molecular target: T1, Cholinesterase (Homo sapiens, UniProt P06276); test: Mixed type inhibition of recombinant human BChE by DTNB reagent based Ellman's method
T1 sequence (P06276 whole entry): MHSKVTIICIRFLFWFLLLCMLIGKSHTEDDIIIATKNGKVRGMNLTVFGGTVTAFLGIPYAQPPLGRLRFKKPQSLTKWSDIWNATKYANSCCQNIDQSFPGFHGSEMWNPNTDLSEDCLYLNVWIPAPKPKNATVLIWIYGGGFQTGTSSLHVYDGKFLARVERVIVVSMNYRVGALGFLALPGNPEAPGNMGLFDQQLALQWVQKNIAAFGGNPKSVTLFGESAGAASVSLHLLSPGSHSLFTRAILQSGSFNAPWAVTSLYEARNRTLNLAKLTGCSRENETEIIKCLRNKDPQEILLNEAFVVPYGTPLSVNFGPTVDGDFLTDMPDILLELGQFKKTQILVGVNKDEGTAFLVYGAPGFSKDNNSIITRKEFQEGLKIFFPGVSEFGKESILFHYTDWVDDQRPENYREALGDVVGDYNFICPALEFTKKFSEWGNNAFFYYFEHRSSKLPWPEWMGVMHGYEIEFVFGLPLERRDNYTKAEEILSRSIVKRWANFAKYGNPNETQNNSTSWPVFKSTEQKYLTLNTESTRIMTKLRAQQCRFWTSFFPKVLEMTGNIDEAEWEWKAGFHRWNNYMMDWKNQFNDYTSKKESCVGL

Acetylcholinesterase [2] = molecular target: T2, Acetylcholinesterase (Homo sapiens, UniProt P22303); test: Non-competitive inhibition of recombinant human AChE by DTNB reagent based Ellman's method
T2 sequence (P22303 whole entry): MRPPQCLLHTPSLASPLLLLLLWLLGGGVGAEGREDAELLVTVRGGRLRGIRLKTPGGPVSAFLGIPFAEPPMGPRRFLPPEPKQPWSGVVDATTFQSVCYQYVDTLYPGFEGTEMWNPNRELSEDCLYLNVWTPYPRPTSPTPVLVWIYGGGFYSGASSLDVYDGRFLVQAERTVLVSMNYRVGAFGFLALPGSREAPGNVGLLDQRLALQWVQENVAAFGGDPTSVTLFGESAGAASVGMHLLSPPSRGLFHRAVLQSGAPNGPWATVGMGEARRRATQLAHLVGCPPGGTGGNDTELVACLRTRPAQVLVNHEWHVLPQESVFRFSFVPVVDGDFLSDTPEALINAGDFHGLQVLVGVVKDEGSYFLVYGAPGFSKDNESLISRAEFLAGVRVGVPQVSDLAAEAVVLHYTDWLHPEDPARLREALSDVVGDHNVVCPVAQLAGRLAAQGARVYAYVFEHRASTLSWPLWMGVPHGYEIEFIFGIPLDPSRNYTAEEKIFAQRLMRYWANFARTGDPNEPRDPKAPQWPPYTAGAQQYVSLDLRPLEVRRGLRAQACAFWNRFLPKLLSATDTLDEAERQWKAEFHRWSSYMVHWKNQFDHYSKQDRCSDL

[3] = molecular target: Beta-secretase 1 (Homo sapiens) (UniProt P56817); test: Inhibition of BACE1 (unknown origin) at 1 uM relative to control
Sequence of Beta-secretase 1 (Homo sapiens) (P56817 whole entry): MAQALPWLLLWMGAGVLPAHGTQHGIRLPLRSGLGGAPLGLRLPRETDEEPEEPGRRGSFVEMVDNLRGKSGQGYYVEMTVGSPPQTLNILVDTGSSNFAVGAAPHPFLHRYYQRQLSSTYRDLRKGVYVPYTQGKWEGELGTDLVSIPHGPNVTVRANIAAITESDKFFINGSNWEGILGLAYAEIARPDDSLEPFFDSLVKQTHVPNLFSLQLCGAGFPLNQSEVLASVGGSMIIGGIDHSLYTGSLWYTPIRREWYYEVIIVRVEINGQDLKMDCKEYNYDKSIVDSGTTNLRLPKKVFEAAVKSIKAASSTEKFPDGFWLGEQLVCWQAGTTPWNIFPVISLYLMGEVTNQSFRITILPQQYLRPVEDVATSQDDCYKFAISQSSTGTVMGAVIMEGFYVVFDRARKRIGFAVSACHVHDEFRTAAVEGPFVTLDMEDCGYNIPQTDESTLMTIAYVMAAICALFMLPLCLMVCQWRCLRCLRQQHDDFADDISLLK

Cholinesterase [4] = molecular target: T1, Cholinesterase; test: Inhibition of recombinant human BChE by DTNB reagent based Ellman's method
SH-SY5Y = test: Cytotoxicity against human SH-SY5Y cells incubated for 24 hrs by MTS assay; format: functional, cell-based
Acetylcholinesterase [5] = molecular target: T2, Acetylcholinesterase; test: Inhibition of recombinant human AChE by DTNB reagent based Ellman's method
Cholinesterase [6] = molecular target: T1, Cholinesterase; test: Competitive inhibition of recombinant human BChE by DTNB reagent based Ellman's method
Acetylcholinesterase [7] = molecular target: T2, Acetylcholinesterase; test: Mixed type inhibition of recombinant human AChE by DTNB reagent based Ellman's method
HEK293 = test: Cytotoxicity against HEK293 cells incubated for 24 hrs by MTS assay; format: functional, cell-based; conditions: Homo sapiens
Acetylcholinesterase [8] = molecular target: T2, Acetylcholinesterase; test: Competitive inhibition of recombinant human AChE by DTNB reagent based Ellman's method
HepG2 = test: Cytotoxicity against human HepG2 cells incubated for 24 hrs by MTS assay; format: functional, cell-based

Compound	inhibition [3] [%]	Ki (Cholinesterase [4]) [nM]	Activity (SH-SY5Y)	Ki (Acetylcholinesterase [5]) [nM]	Ki (Cholinesterase [6]) [nM]	Activity (HEK293)	further results
FC(F)(F)c1ccc2c(NCCCCCCCCNc3ccccc3)ccnc2c1	> 5.6	–	–	–	–	–	Ki (Cholinesterase [1]): 21 nM; Ki (Acetylcholinesterase [2]): 8 nM
Clc1ccc(CNCCCCCCCCNc2ccnc3cc(Cl)ccc23)c(Cl)c1	–	180	Active; Increase In Toxicity Compared To Parent Compound 1	36	–	–	–
Fc1ccc(CNCCCCCCCCNc2ccnc3cc(Cl)ccc23)c(F)c1	–	270	Active	21	–	–	–
CC(C)(C)c1ccc(NCCCCCCCCNc2ccnc3cc(C(F)(F)F)ccc23)cc1	–	–	–	–	71	–	Ki (Acetylcholinesterase [2]): 160 nM
FC(F)(F)c1ccc2c(NCCCCCCCCNC3NCCN3)ccnc2c1	–	–	–	–	–	–	Ki (Cholinesterase [1]): 190 nM; Ki (Acetylcholinesterase [2]): 200 nM
Fc1cccc(CNCCCCCCCCNc2ccnc3cc(Cl)ccc23)c1	–	8.4	–	3.2	–	–	–
Fc1ccc(Br)cc1CNCCCCCCCCNc1ccnc2cc(Cl)ccc12	–	220	–	24	–	–	–
FC(F)(F)c1ccc2c(NCCCCCCCCNc3ccccc3Cl)ccnc2c1	–	–	Active	–	19	Active	Ki (Acetylcholinesterase [7]): 13 nM
O=[N+]([O-])c1ccc(NCCCCCCCCNc2ccnc3cc(C(F)(F)F)ccc23)cc1	> 5.6	–	–	–	–	–	Ki (Cholinesterase [1]): 36 nM; Ki (Acetylcholinesterase [2]): 140 nM
Fc1ccc(Br)c(CNCCCCCCCCNc2ccnc3cc(Cl)ccc23)c1	–	280	–	16	–	–	–
FC(F)(F)c1ccc2c(NCCCCCCCCNc3cc4ccccc4o3)ccnc2c1	–	–	–	–	49	–	Ki (Acetylcholinesterase [8]): 540 nM
FC(F)(F)c1ccc2c(NCCCCCCCCNc3cc4ccccc4s3)ccnc2c1	> 5.6	–	Active	–	4.4	Active	Ki (Acetylcholinesterase [7]): 70 nM
Fc1ccc(F)c(CNCCCCCCCCNc2ccnc3cc(Cl)ccc23)c1	> 5.6	41	–	8.2	–	–	–
Fc1cc(C(F)(F)F)ccc1CNCCCCCCCCNc1ccnc2cc(Cl)ccc12	–	1100	Active; Increase In Toxicity Compared To Parent Compound 1	150	–	Active	–
Fc1ccc(F)c(CN(CCCCCCCCNc2ccnc3cc(Cl)ccc23)c2cc(F)ccc2F)c1	–	1300	–	260	–	–	–
Fc1cc(C(F)(F)F)ccc1CN(CCCCCCCCNc1ccnc2cc(Cl)ccc12)c1ccc(C(F)(F)F)cc1F	–	1500	–	700	–	–	–
Cc1cc(F)c(CNCCCCCCCCNc2ccnc3cc(Cl)ccc23)cc1F	–	620	–	120	–	Active	–
FC(F)(F)c1ccc2c(NCCCCCCCCNc3ccncc3)ccnc2c1	> 5.6	–	–	–	1300	–	–
FC(F)(F)c1ccc2c(NCCCCCCCCNc3cccc(Cl)c3)ccnc2c1	> 5.6	–	Active	–	–	Active	Ki (Cholinesterase [1]): 5.9 nM; Ki (Acetylcholinesterase [7]): 11 nM
Fc1cc(Br)ccc1CNCCCCCCCCNc1ccnc2cc(Cl)ccc12	–	230	Active; Increase In Toxicity Compared To Parent Compound 1	110	–	–	–
FC(F)(F)c1ccc2c(NCCCCCCCCNc3ccc(Cl)cc3)ccnc2c1	–	–	Active	–	21	Active	Ki (Acetylcholinesterase [8]): 70 nM
Fc1cccc(NCCCCCCCCNc2ccnc3cc(C(F)(F)F)ccc23)c1	> 5.6	–	inactive	–	–	inactive	Ki (Cholinesterase [1]): 6.7 nM; Activity (HepG2): inactive; Ki (Acetylcholinesterase [7]): 7.1 nM
Fc1ccc(NCCCCCCCCNc2ccnc3cc(C(F)(F)F)ccc23)cc1	–	–	–	–	6.1	–	Ki (Acetylcholinesterase [2]): 12 nM
